In ChEMBL document CHEMBL1201862, “PubChem BioAssay data set” (2004):
Activity calls are given as the source filed them.

Experiments:
[1] = biological target: Dual specificity tyrosine-phosphorylation-regulated kinase 1A (Rattus norvegicus, UniProt Q63470); assay type: biochemical, Homo sapiens
[2] = biological target: T1, Corticotropin-releasing factor receptor 2/Corticotropin-releasing factor-binding protein (Homo sapiens, UniProt P24387+Q13324); assay: activators of CRF receptor 2 with binding protein – uHTS hits, confirmation (AID 602473); assay type: functional; details: read-out: EC50_Mean
T1 sequence (Q13324 whole entry): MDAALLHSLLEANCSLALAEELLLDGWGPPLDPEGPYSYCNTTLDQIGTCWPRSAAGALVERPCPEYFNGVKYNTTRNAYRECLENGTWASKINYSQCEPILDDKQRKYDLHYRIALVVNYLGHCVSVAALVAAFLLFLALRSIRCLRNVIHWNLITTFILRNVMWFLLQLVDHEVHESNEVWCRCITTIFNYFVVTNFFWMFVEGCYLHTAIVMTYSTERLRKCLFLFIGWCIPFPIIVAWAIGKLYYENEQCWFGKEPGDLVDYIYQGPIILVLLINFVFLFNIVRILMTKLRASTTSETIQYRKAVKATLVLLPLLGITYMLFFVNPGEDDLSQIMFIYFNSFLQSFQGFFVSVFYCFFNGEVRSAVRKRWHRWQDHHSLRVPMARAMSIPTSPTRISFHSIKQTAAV
T1 sequence (P24387 whole entry): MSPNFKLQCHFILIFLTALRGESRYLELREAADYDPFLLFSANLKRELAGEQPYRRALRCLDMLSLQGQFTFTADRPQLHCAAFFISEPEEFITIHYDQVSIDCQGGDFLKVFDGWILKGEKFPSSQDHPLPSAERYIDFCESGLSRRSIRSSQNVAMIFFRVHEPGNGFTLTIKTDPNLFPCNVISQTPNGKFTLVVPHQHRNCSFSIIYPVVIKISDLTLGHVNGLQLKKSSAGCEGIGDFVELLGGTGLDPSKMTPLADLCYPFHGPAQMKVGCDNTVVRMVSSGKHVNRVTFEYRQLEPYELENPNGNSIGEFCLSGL

cells [3] = assay type: functional, cell-based
cells [4] = assay type: functional, cell-based; remark: listed apart in the source
[5] = biological target: T1, Corticotropin-releasing factor receptor 2/Corticotropin-releasing factor-binding protein; assay: Dose Response confirmation of uHTS hits for small molecule antagonists of the CRF-binding protein and CRF-R2 receptor complex.; assay type: functional; details: read-out: IC50_Mean
Nonstructural protein 1 = Nonstructural protein 1 (Influenza A virus, UniProt Q194T2); assay type: functional, Influenza A virus (A/California/07/2009(H1N1))
[6] = inhibitors of intracellular T. cruzi replication, confirmation, NIH3T3 host cells, beta-gal luminescence (AID 2044); assay type: functional, cell-based;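 further: intracellular parasites grown in NIH/3T3 mouse fibroblasts as host cells; luminescent beta-galactosidase reporter signal from transgenic T. cruzi replicating inside host cells; inhibitors lower the luminescence signal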
[7] = biological target: Voltage-dependent T-type calcium channel subunit alpha-1H (Homo sapiens, UniProt O95180); assay type: functional;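 further: channel activity triggered by adding a high calcium stimulation buffer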
[8] = cytotoxicity toward NIH3T3 fibroblasts, dose response, counter-screen, cell-based, ATP luminescence, mouse fibroblasts (AID 2010); assay type: functional;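 further: cells exposed to compound for about 90 hours before reading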
[9] = biological target: T2, Carboxy-terminal domain RNA polymerase II polypeptide A small phosphatase 1 (Homo sapiens, UniProt Q9GZU7); assay: inhibitors of CTDSP1, concentration-response testing, biochemical assay, absorbance-based, actives from ultra-high-throughput screening (AID 540297); assay type: functional
T2 sequence (Q9GZU7 whole entry): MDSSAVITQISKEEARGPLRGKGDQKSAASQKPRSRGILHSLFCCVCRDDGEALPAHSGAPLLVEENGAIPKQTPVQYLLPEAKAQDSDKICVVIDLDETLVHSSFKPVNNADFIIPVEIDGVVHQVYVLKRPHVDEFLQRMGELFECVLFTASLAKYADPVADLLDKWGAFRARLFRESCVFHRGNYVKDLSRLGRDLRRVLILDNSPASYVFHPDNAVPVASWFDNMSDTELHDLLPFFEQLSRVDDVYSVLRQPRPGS

[10] = biological target: T3, Polyadenylate-binding protein 1 (Homo sapiens, UniProt P11940); assay: PABP1 MLLE–PAM2 interaction inhibitors, dose response, miRNA deadenylation inhibitor project, biochemical, fluorescence polarization, Cy5-PAM2 peptide, secondary (AID 602260); assay type: functional; details: read-out: IC50_Mean
[11] = biological target: T3, Polyadenylate-binding protein 1; assay: PABP1 MLLE–PAM2 binding inhibitor potency, dose response, biochemical, fluorescence polarization, FITC-PAM2 peptide (AID 602259); assay type: functional; details: read-out: IC50_Mean
[12] = biological target: FAD-linked sulfhydryl oxidase ALR (Homo sapiens, UniProt P55789); assay: inhibitors of human ALR sulfhydryl oxidase, dose response, biochemical, H2O2 detection, luminescence, cherry-pick (AID 493248)
Leucine aminopeptidase = biological target: T4, Leucine aminopeptidase (Plasmodium falciparum 3D7, UniProt Q8IL11); assay: P. falciparum M17LAP inhibitors, primary screen, biochemical, fluorogenic H-Leu-NHMec substrate, 1536-well (AID 1619); assay type: functional
T4 sequence (Q8IL11 whole entry): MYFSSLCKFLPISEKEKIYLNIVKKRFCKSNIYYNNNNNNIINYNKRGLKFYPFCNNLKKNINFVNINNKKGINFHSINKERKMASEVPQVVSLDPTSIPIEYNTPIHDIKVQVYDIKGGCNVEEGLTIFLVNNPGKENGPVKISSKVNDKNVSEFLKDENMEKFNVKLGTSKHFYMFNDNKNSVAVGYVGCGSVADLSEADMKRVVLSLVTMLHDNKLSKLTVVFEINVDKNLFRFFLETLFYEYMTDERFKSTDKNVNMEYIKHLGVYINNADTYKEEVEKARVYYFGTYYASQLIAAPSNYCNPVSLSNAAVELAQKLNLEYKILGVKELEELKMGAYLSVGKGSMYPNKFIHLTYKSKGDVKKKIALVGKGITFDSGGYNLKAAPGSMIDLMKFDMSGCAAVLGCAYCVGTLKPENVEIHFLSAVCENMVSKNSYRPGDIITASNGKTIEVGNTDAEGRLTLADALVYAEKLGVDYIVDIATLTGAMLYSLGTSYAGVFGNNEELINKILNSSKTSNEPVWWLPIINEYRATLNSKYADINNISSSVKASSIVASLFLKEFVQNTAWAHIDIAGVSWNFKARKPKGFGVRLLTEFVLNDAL

H4 = assay: Luminescence Cell-Based Dose Response HTS to Identify Activators of 5'UTR Stem-Loop Driven Prion Protein mRNA Translation in H4 Neuroglioblastoma Cells. [Related pubchem assays: 1829 (Project Summary), 1814 (Primary HTS)]; assay type: functional; details: Homo sapiens
[13] = Luminescence Cell-Based Dose Confirmation HTS to Identify Activators of 5'UTR Stem-Loop Driven Alpha-Synuclein mRNA Translation in H4 Neuroglioblastoma Cells. [Related pubchem assays: 1829 (Project Summary), 1814 (Primary HTS)]; assay type: functional
[14] = Luminescence Cell-Based Dose Response HTS to Identify Activators of Luciferase Translation or Activity in H4 […] Cells. [Related pubchem assays: 1829 (Project Summary), 1814 (Primary HTS)]; assay type: functional
Paired box protein Pax-8 = Paired box protein Pax-8 (Homo sapiens, UniProt Q06710); assay: inhibitors of PAX8-driven TPO luciferase reporter, dose response, RMG-I cells, cherry-pick (AID 687027); assay type: functional, cell-based;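 further: luciferase reporter driven by Pax8 target thyroperoxidase promoter measured by SteadyGlo luminescence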
[15] = NIH:OVCAR-3 ovarian cancer cell cytotoxicity, dose response, PAX8 inhibitor project, plate reader, dry powder samples (AID 743044); assay type: functional, cell-based
[16] = cytotoxicity in OVCAR8 ovarian cancer cells, dose response, PAX8 project, cell-based, plate reader, dry powder samples (AID 743197); assay type: functional; details: OVCAR-8
[17] = biological target: Induced myeloid leukemia cell differentiation protein Mcl-1 (Homo sapiens, UniProt Q07820); assay type: functional
[18] = biological target: T5, Heat shock factor protein 1 (Mus musculus, UniProt P38532); assay: inhibition of MG132-induced HSE-luciferase signal, confirmation, cell-based, NIH3T3, luminescence, dose retest (AID 2382); assay type: functional;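 further: NIH3T3 fibroblasts with HSF1-driven luciferase reporter stressed by proteasome inhibitor MG132; luminescence from HSF1-driven luciferase expression after 8 hours of MG132 stress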
T5 sequence (P38532 whole entry): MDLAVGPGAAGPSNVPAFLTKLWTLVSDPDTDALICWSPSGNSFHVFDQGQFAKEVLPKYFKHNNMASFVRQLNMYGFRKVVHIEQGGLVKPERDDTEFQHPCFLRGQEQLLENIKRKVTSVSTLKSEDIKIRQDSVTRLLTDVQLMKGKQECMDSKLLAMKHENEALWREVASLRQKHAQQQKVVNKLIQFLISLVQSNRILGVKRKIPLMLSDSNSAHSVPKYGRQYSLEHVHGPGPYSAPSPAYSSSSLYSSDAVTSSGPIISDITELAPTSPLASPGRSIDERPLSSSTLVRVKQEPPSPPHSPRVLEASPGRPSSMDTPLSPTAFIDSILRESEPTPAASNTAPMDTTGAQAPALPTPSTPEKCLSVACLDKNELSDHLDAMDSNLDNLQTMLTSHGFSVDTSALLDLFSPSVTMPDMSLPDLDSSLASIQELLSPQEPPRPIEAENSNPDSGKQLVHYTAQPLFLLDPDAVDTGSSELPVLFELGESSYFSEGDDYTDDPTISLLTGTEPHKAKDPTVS

Chain of Nonstructural protein 1 (Q194T2 whole entry): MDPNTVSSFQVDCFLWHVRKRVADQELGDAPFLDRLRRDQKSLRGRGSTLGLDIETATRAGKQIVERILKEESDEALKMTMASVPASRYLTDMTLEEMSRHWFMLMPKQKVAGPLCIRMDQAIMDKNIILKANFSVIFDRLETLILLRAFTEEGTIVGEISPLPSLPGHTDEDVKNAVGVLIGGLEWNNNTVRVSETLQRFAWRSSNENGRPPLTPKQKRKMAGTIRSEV
Chain of Voltage-dependent T-type calcium channel subunit alpha-1H (O95180 whole entry): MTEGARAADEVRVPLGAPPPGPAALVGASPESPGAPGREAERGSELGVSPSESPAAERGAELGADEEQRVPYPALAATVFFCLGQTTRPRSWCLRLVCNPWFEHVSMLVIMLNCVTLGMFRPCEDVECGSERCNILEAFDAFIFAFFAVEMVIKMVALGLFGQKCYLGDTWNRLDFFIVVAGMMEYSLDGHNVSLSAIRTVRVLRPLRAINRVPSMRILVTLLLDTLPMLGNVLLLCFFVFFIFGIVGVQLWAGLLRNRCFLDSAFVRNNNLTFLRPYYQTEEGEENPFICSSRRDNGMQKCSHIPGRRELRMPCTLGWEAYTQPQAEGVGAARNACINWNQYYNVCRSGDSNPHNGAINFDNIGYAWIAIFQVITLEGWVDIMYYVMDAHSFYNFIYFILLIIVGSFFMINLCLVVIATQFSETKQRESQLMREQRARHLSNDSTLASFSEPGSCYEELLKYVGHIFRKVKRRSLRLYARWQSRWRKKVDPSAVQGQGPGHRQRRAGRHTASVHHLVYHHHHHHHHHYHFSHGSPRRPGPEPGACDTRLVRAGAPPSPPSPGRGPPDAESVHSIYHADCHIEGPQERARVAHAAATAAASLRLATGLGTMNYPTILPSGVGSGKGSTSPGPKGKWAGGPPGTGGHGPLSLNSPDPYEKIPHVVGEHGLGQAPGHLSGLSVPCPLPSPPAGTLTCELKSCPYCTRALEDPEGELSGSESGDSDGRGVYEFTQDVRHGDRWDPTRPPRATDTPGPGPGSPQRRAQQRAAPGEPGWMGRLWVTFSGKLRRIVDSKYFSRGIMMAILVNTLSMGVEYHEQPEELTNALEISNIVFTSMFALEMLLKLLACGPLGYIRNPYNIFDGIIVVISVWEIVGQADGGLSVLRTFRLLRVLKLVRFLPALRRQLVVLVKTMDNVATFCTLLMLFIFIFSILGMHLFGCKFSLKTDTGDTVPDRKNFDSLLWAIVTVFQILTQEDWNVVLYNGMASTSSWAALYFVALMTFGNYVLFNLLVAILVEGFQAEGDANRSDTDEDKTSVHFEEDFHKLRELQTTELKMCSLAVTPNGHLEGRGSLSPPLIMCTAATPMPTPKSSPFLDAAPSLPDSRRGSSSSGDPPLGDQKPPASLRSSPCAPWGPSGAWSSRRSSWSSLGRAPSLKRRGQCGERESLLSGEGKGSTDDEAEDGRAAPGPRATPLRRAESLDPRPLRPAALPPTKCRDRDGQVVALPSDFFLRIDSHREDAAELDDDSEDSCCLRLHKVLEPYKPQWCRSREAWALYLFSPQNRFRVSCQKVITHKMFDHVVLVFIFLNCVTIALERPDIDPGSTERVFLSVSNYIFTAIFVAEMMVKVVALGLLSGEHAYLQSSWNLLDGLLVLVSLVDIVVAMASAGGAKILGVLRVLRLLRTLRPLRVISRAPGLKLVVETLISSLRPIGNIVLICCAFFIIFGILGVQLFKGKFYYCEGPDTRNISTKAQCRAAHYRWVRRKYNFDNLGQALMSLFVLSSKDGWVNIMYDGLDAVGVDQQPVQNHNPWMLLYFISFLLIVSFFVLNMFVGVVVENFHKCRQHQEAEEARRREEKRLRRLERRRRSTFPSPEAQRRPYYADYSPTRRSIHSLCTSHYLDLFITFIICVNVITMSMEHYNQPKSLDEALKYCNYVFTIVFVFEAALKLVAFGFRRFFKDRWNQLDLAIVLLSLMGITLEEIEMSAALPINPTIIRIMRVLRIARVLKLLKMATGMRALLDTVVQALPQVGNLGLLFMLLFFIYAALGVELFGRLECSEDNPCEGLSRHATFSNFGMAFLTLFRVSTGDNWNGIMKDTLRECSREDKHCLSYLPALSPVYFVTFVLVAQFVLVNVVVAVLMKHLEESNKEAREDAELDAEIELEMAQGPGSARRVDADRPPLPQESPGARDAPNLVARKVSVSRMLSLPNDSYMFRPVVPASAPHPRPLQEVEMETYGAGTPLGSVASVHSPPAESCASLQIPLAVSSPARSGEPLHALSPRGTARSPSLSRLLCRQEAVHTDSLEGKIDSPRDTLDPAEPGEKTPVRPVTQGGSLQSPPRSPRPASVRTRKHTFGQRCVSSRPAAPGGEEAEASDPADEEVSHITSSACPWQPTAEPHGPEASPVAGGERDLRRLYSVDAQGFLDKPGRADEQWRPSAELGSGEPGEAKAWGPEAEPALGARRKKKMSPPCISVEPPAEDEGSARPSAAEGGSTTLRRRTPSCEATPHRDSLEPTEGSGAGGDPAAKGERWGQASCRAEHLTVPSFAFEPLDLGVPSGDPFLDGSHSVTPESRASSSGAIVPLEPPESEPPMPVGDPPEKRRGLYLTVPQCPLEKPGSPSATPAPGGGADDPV
Chain of FAD-linked sulfhydryl oxidase ALR (P55789 whole entry): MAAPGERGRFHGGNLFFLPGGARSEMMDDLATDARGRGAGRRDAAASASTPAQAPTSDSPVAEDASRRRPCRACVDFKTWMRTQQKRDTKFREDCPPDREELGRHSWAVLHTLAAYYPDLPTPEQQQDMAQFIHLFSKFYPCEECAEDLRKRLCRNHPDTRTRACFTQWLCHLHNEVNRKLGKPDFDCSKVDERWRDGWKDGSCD
T3 sequence (P11940 whole entry): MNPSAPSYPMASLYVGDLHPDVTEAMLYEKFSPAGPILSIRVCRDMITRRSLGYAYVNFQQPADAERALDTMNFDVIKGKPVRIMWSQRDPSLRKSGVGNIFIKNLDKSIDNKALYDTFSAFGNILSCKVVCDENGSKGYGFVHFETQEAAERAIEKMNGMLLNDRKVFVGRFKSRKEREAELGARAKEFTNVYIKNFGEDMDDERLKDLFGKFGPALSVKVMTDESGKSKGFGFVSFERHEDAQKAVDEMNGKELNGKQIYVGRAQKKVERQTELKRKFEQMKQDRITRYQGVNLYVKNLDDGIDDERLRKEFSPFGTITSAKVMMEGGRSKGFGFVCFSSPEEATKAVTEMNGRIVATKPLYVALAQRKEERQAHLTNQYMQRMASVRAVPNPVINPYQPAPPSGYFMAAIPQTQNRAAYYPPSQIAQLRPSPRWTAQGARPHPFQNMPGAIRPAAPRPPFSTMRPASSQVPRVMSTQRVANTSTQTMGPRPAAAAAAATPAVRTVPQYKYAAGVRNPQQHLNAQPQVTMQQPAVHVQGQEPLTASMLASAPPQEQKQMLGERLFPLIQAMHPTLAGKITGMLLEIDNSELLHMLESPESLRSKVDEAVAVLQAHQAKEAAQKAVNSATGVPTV
Chain of Paired box protein Pax-8 (Q06710 whole entry): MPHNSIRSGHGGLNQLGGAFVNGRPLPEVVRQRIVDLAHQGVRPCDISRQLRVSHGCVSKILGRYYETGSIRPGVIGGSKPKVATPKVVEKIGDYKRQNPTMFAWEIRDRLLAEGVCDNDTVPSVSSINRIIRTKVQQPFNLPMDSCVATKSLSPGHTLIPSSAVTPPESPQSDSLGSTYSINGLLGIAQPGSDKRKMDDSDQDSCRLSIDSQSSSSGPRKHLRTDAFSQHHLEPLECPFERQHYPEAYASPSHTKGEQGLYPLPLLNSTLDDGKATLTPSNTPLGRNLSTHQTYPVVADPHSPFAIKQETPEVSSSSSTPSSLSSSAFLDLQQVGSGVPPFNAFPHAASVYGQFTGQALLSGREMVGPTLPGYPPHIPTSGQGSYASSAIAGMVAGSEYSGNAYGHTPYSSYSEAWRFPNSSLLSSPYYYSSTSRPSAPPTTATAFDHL
Chain of Induced myeloid leukemia cell differentiation protein Mcl-1 (Q07820 whole entry): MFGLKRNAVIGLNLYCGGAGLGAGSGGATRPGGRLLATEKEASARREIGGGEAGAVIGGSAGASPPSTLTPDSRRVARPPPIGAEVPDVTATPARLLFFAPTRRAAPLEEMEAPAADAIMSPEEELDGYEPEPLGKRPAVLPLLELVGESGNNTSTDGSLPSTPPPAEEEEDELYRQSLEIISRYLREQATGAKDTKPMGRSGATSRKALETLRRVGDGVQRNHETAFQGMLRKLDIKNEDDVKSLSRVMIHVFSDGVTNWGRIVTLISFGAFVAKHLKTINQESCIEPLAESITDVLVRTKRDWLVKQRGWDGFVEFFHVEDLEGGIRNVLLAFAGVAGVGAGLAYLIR

CCCC[n+]1ccc(-c2nc3cc([N+](=O)[O-])ccc3[nH]2)cc1
AC50 [1]: 2.24 µM (active)

COc1ccc(/C=C/C(=O)NCCSCc2ccco2)cc1OC
EC50 [2]: > 53 µM (inactive) | EC50 (cells [3]): > 350 µM (not active) | EC50 (cells [4]): > 350 µM (not active) | IC50 [5]: > 47.1 µM (inactive)

FC(F)Oc1ccc(NC(S)=Nc2ccc3c[nH]nc3c2)cc1
EC50 (cells [3]): > 350 µM (not active) | EC50 (cells [4]): > 350 µM (not active)

Cc1ccc(-c2cc(C(=O)N3CCCCCC3)no2)cc1
EC50 (cells [3]): > 350 µM (not active) | EC50 (cells [4]): 10.2 µM (active)

Cc1c(NN=C2C(=O)NC(=O)NC2=O)c(=O)n(-c2ccccc2)n1C
IC50 (Nonstructural protein 1): 2.12 µM (active)

CCC(C)(C)n1nnnc1C(c1ccncc1)N1CCC(Cc2ccccc2)CC1 (stereo not given)
EC50 [6]: 1.06 µM (active) | EC50 [7]: 9.75 µM (active) | EC50 [8]: > 60 µM (not active)

Cc1ccc(-c2cc(C(=O)Nc3cccnc3)c3ccccc3n2)o1
IC50 [9]: 9.9 µM (active)

C=CCOc1ccc(/C=C2\SC(Nc3cccnc3)=NC2=O)cc1
EC50 (cells [3]): > 350 µM (not active) | AC50 [1]: 2.93 µM (active) | EC50 (cells [4]): > 350 µM (not active)

O=C(Nc1cccc(-c2nc3cccnc3s2)c1)c1cccnc1Cl
AC50 [1]: 0.651 µM (active)

CC(=O)Nc1ccc(S(=O)(=O)NC(C)C(=O)NC(C)c2ccccc2)cc1 (stereo not given)
IC50 [10]: > 66 µM (inactive) | IC50 [11]: > 66 µM (inactive) | AC50 [12]: 0.083 µM (active)

COc1cccc(N2CCN(C3CC(=O)N(c4ccc(Cl)c(Cl)c4)C3=O)CC2)c1 (stereo not given)
EC50 [7]: 6.84 µM (active)

O=C(O)c1ccc(CSc2nc3ccc(NC(=O)c4ccccc4C(=O)O)cc3s2)cc1
IC50 [9]: 6.66 µM (active)

Cc1ccc(NC(=O)CSCC(=O)N2c3ccccc3CCc3ccccc32)cc1
EC50 [7]: 4.65 µM (active)

Cc1ccccc1CSCCNC(=O)CCSc1ccccc1
EC50 [7]: 3.24 µM (active)

CCCC1CCC(=C(C#N)C(N)=O)CC1 (stereo not given)
EC50 (cells [3]): > 350 µM (not active) | EC50 (cells [4]): 41.6 µM (active)

CN(C)c1ccc(N=Nc2cccc(F)c2)cc1
IC50 (Nonstructural protein 1): 25 µM (active)

Cn1cc(C(=O)c2ccc(Cl)cc2Cl)cc1C(=O)NN=C(N)COc1ccccc1
EC50 [7]: 3.97 µM (active)

Cc1cc(C(=O)O)ccc1-c1ccc(/C=C2\NC(=O)N(Cc3ccccc3Cl)C2=O)o1
IC50 [9]: 7.71 µM (active) | IC50 (Leucine aminopeptidase): 13.6 µM (active)

O=C(CSc1ccc(-c2ccccn2)nn1)c1ccccc1
EC50 (H4): 56.6 µM (active) | EC50 [13]: > 120 µM (not active) | EC50 [14]: 8.47 µM (active) | IC50 (Nonstructural protein 1): 10.9 µM (active)

CC1CCN(C(=O)CSCC(=O)Nc2nc(-c3cccs3)cs2)CC1
EC50 [7]: 2.23 µM (active)

COc1ccc2nc(NC(=O)C3CCCN3S(=O)(=O)c3ccc(C)cc3)sc2c1 (stereo not given)
EC50 [7]: 57.5 µM (active)

NC(=O)COc1ccc(/C=N\NC(=O)c2ccc(-c3ccccc3)cc2)cc1
IC50 [9]: 6.66 µM (active)

Clc1ccc2[nH]c(COc3ccccc3)nc2c1
AC50 [1]: 6.23 µM (active)

C[C@H]1CCCCO[C@@H](CN(C)Cc2ccc(C(F)(F)F)cc2)[C@@H](C)CN([C@@H](C)CO)C(=O)c2cc(NC(=O)Nc3ccc(F)cc3)ccc2O1
AC50 (Paired box protein Pax-8): 5.26 µM (active) | AC50 [15]: 66.3 µM (active) | AC50 [16]: 56 µM (active)

C[C@@H]1CN([C@@H](C)CO)C(=O)Cc2cc(NC(=O)Nc3ccc(C(F)(F)F)cc3)ccc2O[C@H]1CN(C)C(=O)NC1CCCCC1
AC50 (Paired box protein Pax-8): 8.4 µM (active) | AC50 [15]: 54 µM (active)

COc1ccc(C(=O)n2nc(C)c(Br)c2C)cc1
IC50 [17]: 2.84 µM (not active)

O=C(N/N=C/c1ccccc1O)C(=O)Nc1ccccn1
IC50 (Nonstructural protein 1): 10.8 µM (active)

CC(C)n1cc(/C=N/Nc2ccc(C(=O)O)cc2)c2ccccc21
EC50 [18]: < 0.16 µM (active) | AC50 [12]: 0.192 µM (active)

COc1ccccc1OCC(=O)N/N=C/c1c(O)ccc2ccccc12
EC50 (cells [3]): 10.8 µM (active) | EC50 (cells [4]): > 350 µM (not active)
